What was measured:
[1] = target: sigma-1 receptor (Rattus norvegicus, UniProt Q9R0C9); experiment: radioligand competition with [3H]-; assay type: binding
[2] = target: T1, sigma-2 receptor/transmembrane protein 97 (TMEM97) (Rattus norvegicus, UniProt Q5U3Y7); experiment: radioligand competition with [3H]DTG plus […]; assay type: binding
T1 sequence (Q5U3Y7 1-176): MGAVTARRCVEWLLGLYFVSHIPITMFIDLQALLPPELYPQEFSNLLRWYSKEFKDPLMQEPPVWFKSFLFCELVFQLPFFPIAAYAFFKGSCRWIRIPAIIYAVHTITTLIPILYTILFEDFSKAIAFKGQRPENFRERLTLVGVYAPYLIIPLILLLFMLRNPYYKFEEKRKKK

Sequence of sigma-1 receptor (Q9R0C9 whole entry): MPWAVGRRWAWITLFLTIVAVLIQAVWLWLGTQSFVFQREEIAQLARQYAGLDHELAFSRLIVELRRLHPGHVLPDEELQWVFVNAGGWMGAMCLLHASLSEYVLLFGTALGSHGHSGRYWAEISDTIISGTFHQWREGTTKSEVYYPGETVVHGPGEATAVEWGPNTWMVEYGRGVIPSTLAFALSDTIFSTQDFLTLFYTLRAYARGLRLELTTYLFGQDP

## O=c1oc2cc(NC(=S)Nc3ccc4c(c3)oc(=O)n4CCCCN3CCN(c4ccc(F)cc4)CC3)ccc2n1CCCCN1CCN(c2ccc(F)cc2)CC1 [MAM03055A, 1,3-bis(3-(4-(4-(4-fluorophenyl)piperazin-1-yl)butyl)-2-oxo-2,3-dihydrobenzo[d]oxazol-6-yl)thiourea]
[1]
  Ki: 3.37 µM
[2]
  Ki: 0.0559 µM

Source: PMC8736263 (European journal of pharmacology, 2021)
